In test [1] the test system is wild type HBV or resistant variants of HBV (polymerase M204V, M204I, L180M, L180M/M204V, N236T). The experiment in a line: Antiviral assays in cells chronically infected with wild type HBV or resistant variants (Example 4). As to conditions: added to the cells daily for nine consecutive days. It is filed as cell-based. The method, then: Antiviral assays were carried out in cells chronically infected with resistant variants of HBV. In order to gauge the efficacy of Formula (IIa) and the antiviral nucleoside analogs lamivudine (3TC) and adefovir dipivoxil (ADV) against the tested strains, the in vitro activity (EC50, μM) was determined using six different cell samples chronically infected with HBV. Each cell sample was infected with either wild type HBV or a resistant variant of HBV, wherein the resistant variants comprise mutations in the HBV polymerase (P) at the following amino acid positions: M204V, M204I, L180M, L180M/M204V, and N236T. In each assay, Formula (IIa), 3TC, or ADV was added to the cells daily for nine consecutive days.

In test [2] the test system is woodchuck hepatitis virus (WHV). The experiment in a line: Formula (IIa) in combination with entecavir, sequential oral treatment of chronic WHV carrier woodchucks (Example 3). The test is classed as in vivo, woodchuck (Marmota monax). An excerpt: Ten (10) woodchucks chronically infected with WHV were used. Woodchucks were born in captivity and were inoculated at 3 days of age with cWHV7P2a inoculum, then reared until 11 months of age. Prior to the study, woodchucks were confirmed as established chronic carriers of WHV based on established criteria including the presence of WHV surface antigen (WHsAg), antibody against […], and WHV DNA. Woodchucks used in the study were of both gender and approximately between 12 and 14 months of age at the start of the study.
Two (2) groups of five (5) chronic WHV carrier woodchucks each were used in the study:
Group 1 was orally treated for 4 weeks with ETV at a daily dose of 0.5 mg/kg starting at T0, followed by add-on treatment with Formula (IIa) for 12 weeks at a daily dose of 30 mg/kg. Woodchucks were then followed for a total of 24 weeks.
Group 2 was orally treated for 12 weeks with Formula (IIa) at a daily dose of 30 mg/kg starting at T0, followed by add-on treatment with ETV for 4 weeks at a daily dose of 0.5 mg/kg. Woodchucks were then also followed for a total of 24 weeks.
Formula (IIa) was supplied as a pre-weighed powder in individual containers. An amount of powder sufficient to treat all 10 pre-weighed woodchucks per day with Formula (IIa) was mixed directly with woodchuck diet powder (Dyets Inc., Bethlehem, Pa.) and then suspended with HPLC water. The drug was orally administered with a dose syringe at T0 (Group 2) or after 4 weeks of treatment with ETV (Group 1), and thereafter every day for 12 weeks (84 days). Drug dosing was then followed by an extra 2 ml of woodchuck liquid diet to ensure complete consumption of Formula (IIa).
ETV was provided as powder. An amount of powder sufficient to treat all 10 woodchucks per day was suspended in isotonic saline at a concentration of 0.5 mg/ml. A volume (ml) of drug solution equivalent to the body weight (kg) of an individual woodchuck was then mixed with approximately 3-5 ml of woodchuck liquid diet and administered orally with a dose syringe at T0 (Group 1) or after 12 weeks of treatment with Formula (IIa) (Group 2), and thereafter every day for 4 weeks (28 days). ETV dosing was followed by an extra 2 ml of woodchuck liquid diet to ensure complete consumption of drug.
Prior to administration of Formula (IIa) or ETV at T0, then weekly until the end of the study at week 24, whole blood samples were drawn from each woodchuck under ketamine/xylazine anesthesia for determinations of serum WHV DNA, WHsAg, and anti-WHs (see Summary Table below). […] Blood samples were kept at room temperature following collection and serum harvested upon observation of clot retraction. Harvested serum was transferred to microcentrifuge tubes and stored frozen at −70° C. until use.
The induction of an innate immune response in peripheral blood and liver of woodchucks by combination treatment with Formula (IIa) and ETV were determined via real time PCR-based assays. Whole blood samples were obtained prior to the start of treatment with Formula (IIa) at T0, and then at weeks 4, 10, 16, 20, and 24 (Group 1) or at weeks 6, 12, 16, 20, and 24 (Group 2) (see Summary Table below). Whole blood was drawn into PAXgene blood tubes at the indicated time points and stored at −70° C. until use. Total RNA was isolated from whole blood and treated with DNase using the PAXgene Blood miRNA Kit (Quiagen). This was followed by reverse transcription of mRNA into cDNA and amplification of host immune response genes by real time PCR. Woodchuck cytokine and interferon-stimulated genes included IFN-α, IFN-β, interleukin 6 (IL-6), 2′-5′-oligoadenylate synthetase 1 (OAS-1), interferon-induced 17 kDa protein (ISG15), and interferon gamma-induced protein 10 (IP-10or CXCL10). Woodchuck 18S rRNA expression was used to normalize target gene expression. […]

For test [3] the test system is unchanged. The experiment in a line: Antiviral activity of Formula (Ia), intraperitoneal, in chronic WHV carrier woodchucks (Example 1). The test is classed as in vivo, woodchuck (Marmota monax). How it is done: Three groups of five chronic WHV carrier woodchucks were used in this in this study. Formula (Ia) was administered intraperitoneally to two groups for a total of 4 weeks. Groups for drug treatment received Formula (Ia) at either 10 mg/kg/day or 30 mg/kg/day. The third group received physiological saline intraperitoneally and served as placebo-treated controls.
Blood samples for WHV serology, serum […], and hematological and biochemical profiles were obtained prior to the start of treatment and taken thereafter according to the study design. The body weight of each subject was recorded when the woodchucks were anesthetized and bled. The recorded body weights of the drug-treated woodchucks were compared to the placebo-treated control woodchucks to assess possible drug toxicity. WHsAg and anti-WHs and anti-WHc antibodies were determined qualitatively using established ELISA protocols. Dilutions of serum were used to ensure the detection of these markers […] conditions.
WHV DNA in serum was initially measured by dot blot hybridization and quantified by comparing signals of test specimens and standards of known WHV DNA concentration using a homologous probe. […] Quantitative WHV nucleic acid analyses were also performed using a real-time PCR assay with samples containing serum WHV DNA below the limit of detection by dot blot analysis. […]

With `CC(C)(C)C(=O)OCOP(=O)(COCCn1cnc2c(N)ncnc21)OCOC(=O)C(C)(C)C` [ADV, adefovir dipivoxil, reference compound], the “efficacy against cells infected with wild type and resistant HBV strains (in vitro activity, FIG. 31)” value in test [1] is given as “efficacious against cells infected with all the HBV strains tested”.

As to `C=C1[C@H](CO)[C@@H](O)C[C@@H]1n1cnc2c(=O)[nH]c(N)nc21` [ETV, entecavir, reference compound], in test [2] (ETV 0.5 mg/kg daily oral for 4 weeks, expectation from previous studies), the “expected suppression of serum viremia” value is listed as 3-4 log10. In addition, in test [2] (ETV 0.5 mg/kg daily oral, Group 1), the “reductions in serum WHV DNA from pretreatment level during the 4 weeks of ETV” value is reported as “marked reductions”. In addition, the “reductions in serum WHsAg from pretreatment level during the 4 weeks of ETV administration” value in test [2] (ETV 0.5 mg/kg, most woodchucks of Group 1) is recorded as “marked reductions”.

As for `COC1[C@@H](OP(=O)(S)OC[C@H]2O[C@@H](n3cnc4c(N)ncnc43)C[C@H]2O)[C@@H](CO)O[C@H]1n1ccc(=O)[nH]c1=O` (stereo partly drawn) [Formula (Ia)], the “staining intensity of cytoplasmic WHcAg in liver tissues compared to placebo controls” value in test [3] (30 mg/kg, end of treatment at week 4) is on record as “significantly decreased”. Besides, in test [3] (10 and 30 mg/kg/day, 4 weeks), the “consistent reductions in serum WHsAg and in hepatic expression of WHcAg and WHsAg” value was “not observed on a dose-response basis”.

The record behind these values is patent US20180110796A1, “COMPOSITIONS AND METHODS FOR THE TREATMENT OF HBV INFECTION” (Spring Bank Pharmaceuticals, Inc., priority 2015, published 2018).
